Data on ten molecules can be found in ChEMBL document CHEMBL1201862, “PubChem BioAssay data set” (2004).

Calls of active or inactive are those of the source.

One experiment deals with Large T antigen (Simian virus 40, UniProt P03070). In kind it is functional, Betapolyomavirus macacae.
A further experiment has as its target NS3 (Hepatitis C virus, UniProt A3EZJ3). Nature of the experiment: PubChem AID 2173. Set-up: species or system Hepacivirus hominis.
The target of experiment [1] is T1, Long-chain-fatty-acid--AMP ligase FadD28 (Mycobacterium tuberculosis, UniProt P9WQ59).
T1 sequence (P9WQ59 whole entry): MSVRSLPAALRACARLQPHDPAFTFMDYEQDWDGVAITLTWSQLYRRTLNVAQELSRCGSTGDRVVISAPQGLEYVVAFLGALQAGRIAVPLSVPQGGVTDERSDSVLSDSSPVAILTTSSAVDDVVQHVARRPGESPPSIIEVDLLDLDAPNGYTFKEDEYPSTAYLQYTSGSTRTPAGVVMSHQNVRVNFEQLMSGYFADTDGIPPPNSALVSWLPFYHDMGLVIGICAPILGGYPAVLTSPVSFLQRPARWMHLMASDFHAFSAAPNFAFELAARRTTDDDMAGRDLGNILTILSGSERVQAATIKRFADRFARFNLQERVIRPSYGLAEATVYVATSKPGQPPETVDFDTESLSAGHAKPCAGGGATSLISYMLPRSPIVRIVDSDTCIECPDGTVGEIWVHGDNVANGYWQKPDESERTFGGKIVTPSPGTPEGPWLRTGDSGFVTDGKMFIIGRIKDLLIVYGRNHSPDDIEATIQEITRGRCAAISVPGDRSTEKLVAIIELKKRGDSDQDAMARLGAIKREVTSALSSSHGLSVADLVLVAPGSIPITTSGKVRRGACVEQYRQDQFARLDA
Kind of experiment: Fluorescence polarization aasay to screen for inhibitors that compete for the binding of FadD28 to a bisubstrate Measured in Biochemical System Using Plate Reader - 2147-01_Inhibitor_Dose_CherryPick_Activity. In kind it is functional, Mycobacterium tuberculosis H37Rv. For orientation: Polarisation of emitted light reports the rotation of a fluorescent probe.

The nature of experiment [2]: HEp-2 cell cytotoxicity, dose response, cytotoxicity control for RSV inhibitor project, HTS (AID 2410). In kind it is functional. As to conditions: human respiratory syncytial virus.
Experiment [3] is described as follows: cells.
Experiment [4] concerns the target Glyceraldehyde-3-phosphate dehydrogenase (Homo sapiens, UniProt P04406).
Experiment [5] concerns the target T2, Bcl-2-related protein A1 (Mus musculus, UniProt Q07440).
T2 sequence (Q07440 whole entry): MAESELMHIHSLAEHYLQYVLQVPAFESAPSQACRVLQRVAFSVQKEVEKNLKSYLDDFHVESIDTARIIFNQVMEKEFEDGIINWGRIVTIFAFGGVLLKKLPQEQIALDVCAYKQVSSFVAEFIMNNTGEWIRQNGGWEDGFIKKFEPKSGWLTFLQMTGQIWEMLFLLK
Nature of the experiment: Bfl-1 inhibitors blocking BH3 peptide binding, confirmation, biochemical, TR-FRET, mouse Bfl-1 (AID 621).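 Further: TR-FRET binding of GST-Bfl-1 to FITC-labelled Bid peptide via terbium antibody.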 In general terms: TR-FRET usually uses a lanthanide donor and a delayed reading to cut background.

Experiment [6] addresses T2, Bcl-2-related protein A1. Kind of experiment: Bfl-1 binding inhibitors, SAR follow-up, biochemical, fluorescence polarization (AID 1070).
Experiment [7] concerns the target Luciferin 4-monooxygenase (Photinus pyralis, UniProt P08659). Kind of experiment: Counter Screen for Luciferase-based Assay Positives. [Related pubchem assays: 620, 618, 411 ]. (A counterscreen serves to expose hits that act by an unwanted route or on another target.)
Another experiment has as its system HT-1080. Nature of the experiment: cytotoxicity in HT1080 fibrosarcoma cells, cell-based, fluorescence readout (AID 620). To be noted: Homo sapiens. In kind it is functional.
Experiment [8] is described as follows: cytotoxicity in HEK-293T cells, dose response, cytotoxicity control for BCR NF-kB inhibitor project, luminescence, B-cell screen hits (AID 489021).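 Further: HEK-293T cells carrying an NF-kB luciferase reporter; cells exposed to compound for about 14 hours before viability readout.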 In kind it is functional, cell-based.
The nature of experiment [9]: inhibitors of HIV Env-driven cell fusion, dose response, cherry-pick (AID 652057). In kind it is functional, cell-based.
The nature of experiment [10]: ZM109 Env clade C HIV-1 fusion inhibitors, dose response, HeLa effector, CEM target cells, luciferase, cherry-pick (AID 652058). In kind it is functional, cell-based.
Experiment [11] is described as follows: off-target signal loss in HeLa-CEM21 co-culture – HeLa F-luc CTL cells, cherry-picked, counter-screen for HIV-1 Env fusion inhibitor project, dose response (AID 652040).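 Further: potency for signal decrease marking cytotoxic or nonspecific inhibition.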 In kind it is functional, cell-based.
The nature of experiment [12]: inhibitors of clade B AD8 Env fusion, dose response, cell-based, cherry-pick (AID 652062).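 Further: luciferase signal from cell-cell fusion driven by HIV-1 clade B AD8 Env; potency is for inhibitors of fusion seen as a drop in luminescence.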 In kind it is functional.
A short description of experiment [13]: Luminescence Cell-Based Dose Response to Identify Activators of 5'UTR Stem-Loop Driven Prion Protein mRNA Translation in H4-C Neuroglioblastoma Cells. [Related pubchem assays: 1829 (Project Summary), 1814 (Primary HTS)]. In kind it is functional.
A short description of experiment [14]: Luminescence Cell-Based Dose Confirmation HTS to Identify Activators of 5'UTR Stem-Loop Driven Alpha-Synuclein mRNA Translation in H4 Neuroglioblastoma Cells. [Related pubchem assays: 1829 (Project Summary), 1814 (Primary HTS)]. In kind it is functional.
Experiment [15] in a line: Luminescence Cell-Based Dose Response HTS to Identify Activators of Luciferase Translation or Activity in H4 […] Cells. [Related pubchem assays: 1829 (Project Summary), 1814 (Primary HTS)]. In kind it is functional.
In the next experiment the test system is H4. Kind of experiment: Luminescence Cell-Based Dose Response HTS to Identify Activators of 5'UTR Stem-Loop Driven Prion Protein mRNA Translation in H4 Neuroglioblastoma Cells. [Related pubchem assays: 1829 (Project Summary), 1814 (Primary HTS)]. As to conditions: Homo sapiens. In kind it is functional.
The nature of experiment [16]: Luminescence Cell-Based Dose Response to Identify Activators of Luciferase Translation or Activity in H4-C Neuroglioblastoma Cells. [Related pubchem assays: 1829 (Project Summary), 1814 (Primary HTS)]. In kind it is functional.
Experiment [17] is described as follows: Luminescence Cell-Based Dose Confirmation to Identify Activators of 5'UTR Stem-Loop Driven Alpha-Synuclein mRNA Translation in H4 Neuroglioblastoma Cells. [Related pubchem assays: 1829 (Project Summary), 1814 (Primary HTS)]. In kind it is functional.
For a further experiment, the target named is T3, Leucine aminopeptidase (Plasmodium falciparum 3D7, UniProt Q8IL11).
T3 sequence (Q8IL11 whole entry): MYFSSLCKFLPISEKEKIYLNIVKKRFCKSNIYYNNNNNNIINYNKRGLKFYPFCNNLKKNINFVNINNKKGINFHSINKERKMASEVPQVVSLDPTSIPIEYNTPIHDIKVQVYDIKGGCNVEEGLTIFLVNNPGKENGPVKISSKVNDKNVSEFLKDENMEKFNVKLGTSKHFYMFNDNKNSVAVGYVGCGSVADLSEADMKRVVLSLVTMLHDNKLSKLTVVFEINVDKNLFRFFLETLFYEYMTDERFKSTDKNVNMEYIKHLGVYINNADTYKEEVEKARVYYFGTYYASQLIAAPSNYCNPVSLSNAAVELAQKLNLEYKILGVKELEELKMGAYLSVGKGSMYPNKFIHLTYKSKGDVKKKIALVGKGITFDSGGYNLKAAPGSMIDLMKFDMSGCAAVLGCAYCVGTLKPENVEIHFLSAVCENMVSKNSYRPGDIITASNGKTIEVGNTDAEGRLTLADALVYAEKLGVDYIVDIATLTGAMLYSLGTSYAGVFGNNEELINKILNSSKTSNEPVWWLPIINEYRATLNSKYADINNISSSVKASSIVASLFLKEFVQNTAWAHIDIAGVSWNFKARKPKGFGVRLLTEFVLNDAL
Nature of the experiment: P. falciparum M17LAP inhibitors, primary screen, biochemical, fluorogenic H-Leu-NHMec substrate, 1536-well (AID 1619). In kind it is functional.

For experiment [18], the target named is T4, Microphthalmia-associated transcription factor (Homo sapiens, UniProt O75030).
T4 sequence (O75030 whole entry): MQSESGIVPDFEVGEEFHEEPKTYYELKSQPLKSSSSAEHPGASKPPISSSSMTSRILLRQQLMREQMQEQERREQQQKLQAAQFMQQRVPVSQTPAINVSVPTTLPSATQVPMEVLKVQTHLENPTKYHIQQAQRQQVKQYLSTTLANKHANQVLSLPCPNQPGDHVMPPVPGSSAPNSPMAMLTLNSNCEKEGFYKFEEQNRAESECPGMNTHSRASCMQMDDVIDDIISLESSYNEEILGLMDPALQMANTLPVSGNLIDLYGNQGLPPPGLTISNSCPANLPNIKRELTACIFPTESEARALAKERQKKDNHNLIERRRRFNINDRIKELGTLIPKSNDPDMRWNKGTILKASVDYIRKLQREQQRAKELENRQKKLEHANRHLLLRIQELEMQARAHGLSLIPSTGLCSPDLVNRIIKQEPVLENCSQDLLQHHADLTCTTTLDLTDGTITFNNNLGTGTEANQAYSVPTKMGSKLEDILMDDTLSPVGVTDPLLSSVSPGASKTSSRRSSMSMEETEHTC
Kind of experiment: TRPM1 promoter luciferase signal decrease, dose response, MITF inhibitor project, cell-based, SK-MEL-5, cherry-picked, set 3 (AID 493073).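 Further: SK-MEL-5 melanoma cells with luciferase driven by the MITF target TRPM1 promoter.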 In kind it is functional.

The target in experiment [19] is 26S proteasome non-ATPase regulatory subunit 14 (Homo sapiens, UniProt O00487). Nature of the experiment: inhibition of proteasome subunit RPN11 – biochemical, fluorescence polarization, uHTS hits, confirmation (AID 602368). In kind it is functional.
26S proteasome non-ATPase regulatory subunit 14, sequence (O00487 whole entry): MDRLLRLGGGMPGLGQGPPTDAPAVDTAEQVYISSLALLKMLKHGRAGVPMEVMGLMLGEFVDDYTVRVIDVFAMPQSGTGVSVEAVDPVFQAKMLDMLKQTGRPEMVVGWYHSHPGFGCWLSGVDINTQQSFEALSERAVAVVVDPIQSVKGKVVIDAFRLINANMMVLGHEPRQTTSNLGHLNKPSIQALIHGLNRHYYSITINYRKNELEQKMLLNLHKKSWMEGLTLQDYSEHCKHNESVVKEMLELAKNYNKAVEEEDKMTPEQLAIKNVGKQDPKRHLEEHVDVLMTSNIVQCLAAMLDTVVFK
In experiment [20] the target is 72 kDa type IV collagenase (Homo sapiens, UniProt P08253). Nature of the experiment: Dose Response validation of uHTS RPN11 inhibitor hits using a MMP-2 Fluorescence assay. In kind it is functional.
72 kDa type IV collagenase, sequence (P08253 whole entry): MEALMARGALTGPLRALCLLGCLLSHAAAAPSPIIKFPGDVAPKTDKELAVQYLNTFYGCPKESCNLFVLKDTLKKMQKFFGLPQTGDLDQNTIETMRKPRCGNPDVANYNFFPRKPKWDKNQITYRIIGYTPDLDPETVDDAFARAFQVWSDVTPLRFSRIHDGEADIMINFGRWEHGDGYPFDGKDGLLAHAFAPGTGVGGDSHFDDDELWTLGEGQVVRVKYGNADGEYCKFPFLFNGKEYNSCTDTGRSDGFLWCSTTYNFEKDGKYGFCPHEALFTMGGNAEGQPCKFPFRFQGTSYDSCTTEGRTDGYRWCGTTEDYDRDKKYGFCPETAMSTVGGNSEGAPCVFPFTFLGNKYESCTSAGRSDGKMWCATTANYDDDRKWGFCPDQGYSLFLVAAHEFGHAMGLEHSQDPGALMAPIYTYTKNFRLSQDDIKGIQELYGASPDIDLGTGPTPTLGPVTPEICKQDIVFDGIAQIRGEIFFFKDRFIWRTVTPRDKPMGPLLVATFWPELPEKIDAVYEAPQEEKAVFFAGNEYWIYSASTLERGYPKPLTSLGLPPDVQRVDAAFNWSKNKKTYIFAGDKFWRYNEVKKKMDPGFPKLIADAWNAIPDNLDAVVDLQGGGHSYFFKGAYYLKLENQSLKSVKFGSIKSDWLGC
Another experiment concerns the target Prothrombin (Bos taurus, UniProt P00735). Kind of experiment: thrombin inhibition, dose response, biochemical, fluorescence polarization, uHTS hits (AID 602369). In kind it is functional.
Experiment [21] in a line: inhibitors of firefly luciferase expression or activity, dose response, H4 neuroglioma cells, luminescence (AID 1990). In kind it is functional, cell-based.
The nature of experiment [22]: luciferase reporter signal reduction – luminescence, H4-C neuroglioblastoma cells, dose response (AID 2458).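 Further: H4 neuroglioblastoma cells stably carrying a luciferase reporter gene fusion.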 In kind it is functional, cell-based.
Experiment [23] in a line: cells. In kind it is functional, cell-based.
Experiment [24] can be described thus: Luminescence Cell-Based Dose Response HTS to Identify Inhibitors of 5'UTR Stem-Loop Driven Prion Protein mRNA Translation in H4 Neuroglioblastoma Cells. [Related pubchem assays: 1827 (Project Summary), 1813 (Primary HTS)]. In kind it is functional.
The nature of experiment [25]: inhibitors of SNCA 5'UTR-driven reporter translation, confirmation, H4 neuroglioma cells, luminescence (AID 1988). In kind it is functional, cell-based.
The nature of experiment [26]: inhibitors of SNCA 5'UTR-driven translation, confirmation, luminescence, H4 neuroglioblastoma cells, dose confirmation (AID 2454).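 Further: H4 neuroglioblastoma cells carrying an alpha-synuclein 5'UTR luciferase reporter; potency for inhibition of the luciferase signal.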 In kind it is functional, cell-based.

NS3, sequence (A3EZJ3 whole entry): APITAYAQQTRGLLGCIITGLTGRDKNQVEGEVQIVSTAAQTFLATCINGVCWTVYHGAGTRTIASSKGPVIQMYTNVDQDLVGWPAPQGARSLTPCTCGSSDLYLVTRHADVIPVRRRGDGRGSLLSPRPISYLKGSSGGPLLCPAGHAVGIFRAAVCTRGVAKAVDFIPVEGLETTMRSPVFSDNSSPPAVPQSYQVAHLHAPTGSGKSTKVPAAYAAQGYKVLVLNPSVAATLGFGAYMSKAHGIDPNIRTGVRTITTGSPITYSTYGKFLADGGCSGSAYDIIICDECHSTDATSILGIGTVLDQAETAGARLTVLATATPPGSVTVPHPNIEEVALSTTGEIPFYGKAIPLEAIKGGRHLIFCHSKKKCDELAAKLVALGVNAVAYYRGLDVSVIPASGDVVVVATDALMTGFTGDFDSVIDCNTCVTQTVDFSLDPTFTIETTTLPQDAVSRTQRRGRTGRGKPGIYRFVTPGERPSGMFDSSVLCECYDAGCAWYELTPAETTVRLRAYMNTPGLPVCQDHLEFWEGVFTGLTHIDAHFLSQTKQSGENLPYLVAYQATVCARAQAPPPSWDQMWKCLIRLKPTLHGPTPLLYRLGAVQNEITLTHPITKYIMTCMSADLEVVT
Luciferin 4-monooxygenase, sequence (P08659 whole entry): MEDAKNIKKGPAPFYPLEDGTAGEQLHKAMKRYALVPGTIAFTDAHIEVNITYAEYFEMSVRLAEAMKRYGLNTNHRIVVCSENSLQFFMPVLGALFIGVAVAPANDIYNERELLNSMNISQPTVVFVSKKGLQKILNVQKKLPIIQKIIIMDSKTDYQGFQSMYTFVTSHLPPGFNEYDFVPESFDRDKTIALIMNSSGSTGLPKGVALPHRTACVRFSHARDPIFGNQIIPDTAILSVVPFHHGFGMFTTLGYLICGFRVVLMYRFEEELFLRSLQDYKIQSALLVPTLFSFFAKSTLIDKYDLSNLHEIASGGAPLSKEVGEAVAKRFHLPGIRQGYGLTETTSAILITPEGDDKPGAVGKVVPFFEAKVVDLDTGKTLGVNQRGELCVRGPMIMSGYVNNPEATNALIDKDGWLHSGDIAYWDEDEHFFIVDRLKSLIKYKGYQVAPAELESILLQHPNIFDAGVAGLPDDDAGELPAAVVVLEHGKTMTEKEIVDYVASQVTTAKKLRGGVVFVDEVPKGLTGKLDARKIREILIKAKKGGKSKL
Glyceraldehyde-3-phosphate dehydrogenase, sequence (P04406 whole entry): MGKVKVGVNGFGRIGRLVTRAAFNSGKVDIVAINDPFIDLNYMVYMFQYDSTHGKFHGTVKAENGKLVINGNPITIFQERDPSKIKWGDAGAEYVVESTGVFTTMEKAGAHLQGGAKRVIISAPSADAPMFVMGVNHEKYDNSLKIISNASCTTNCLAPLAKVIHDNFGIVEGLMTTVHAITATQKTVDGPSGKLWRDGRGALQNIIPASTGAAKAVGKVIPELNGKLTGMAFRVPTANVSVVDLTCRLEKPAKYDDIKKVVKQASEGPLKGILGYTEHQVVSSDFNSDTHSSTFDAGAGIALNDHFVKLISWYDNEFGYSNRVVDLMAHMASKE
Large T antigen, sequence (P03070 whole entry): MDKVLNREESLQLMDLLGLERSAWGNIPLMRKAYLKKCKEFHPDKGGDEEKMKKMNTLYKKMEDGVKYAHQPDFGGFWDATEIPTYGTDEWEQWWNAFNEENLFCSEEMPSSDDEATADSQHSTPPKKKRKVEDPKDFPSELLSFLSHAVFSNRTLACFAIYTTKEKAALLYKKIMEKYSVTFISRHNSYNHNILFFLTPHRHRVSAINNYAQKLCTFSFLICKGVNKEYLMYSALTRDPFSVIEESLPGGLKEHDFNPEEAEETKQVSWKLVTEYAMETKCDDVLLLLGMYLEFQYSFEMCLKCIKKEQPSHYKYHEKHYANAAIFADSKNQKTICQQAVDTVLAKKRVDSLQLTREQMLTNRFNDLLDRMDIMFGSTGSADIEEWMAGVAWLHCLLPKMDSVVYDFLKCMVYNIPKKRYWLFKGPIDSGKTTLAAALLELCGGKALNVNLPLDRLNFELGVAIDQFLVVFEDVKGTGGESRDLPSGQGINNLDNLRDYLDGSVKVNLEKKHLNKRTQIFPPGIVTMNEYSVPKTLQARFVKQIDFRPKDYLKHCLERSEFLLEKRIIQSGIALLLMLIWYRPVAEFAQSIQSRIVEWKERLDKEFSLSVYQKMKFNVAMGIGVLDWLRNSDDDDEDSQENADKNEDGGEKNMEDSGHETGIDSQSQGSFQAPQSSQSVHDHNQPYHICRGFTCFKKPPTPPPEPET

Turning to `O=c1c2c(O)cc(CSc3ccc(Cl)cc3)nc2[nH]n1-c1ccccc1`, the IC50 (in general, the concentration that gives 50% inhibition) at Large T antigen is > 100 µM (active); at NS3 it was 5.22 µM (active). Moreover, the AC50 (in general, the midpoint of the concentration-response curve, whichever way the signal moves) in experiment [1] was 23.4 µM (active).

For the molecule `Cc1cc(O)nc(N/N=C/c2c(C)nn(-c3ccccc3Cl)c2Cl)n1`, the CC50 (commonly the concentration that lowers cell viability or growth by half) in experiment [2] is 21.2 µM (active). Also, in “cells [3]”, the IC50 is 41.5 µM (active).

For `CC1CN(C2=C(Cl)C(=O)N(c3ccc(Cl)c(Cl)c3)C2=O)CCN1c1ccccc1` (configuration not stated), the IC50 in experiment [4] was > 100 µM (not active); at Bcl-2-related protein A1 [5], 19.3 µM (active); at Bcl-2-related protein A1 [6], > 100 µM (not active).

With `COc1ccc(C(c2c(NC(=O)c3ccco3)sc(C)c2C)N2CCOCC2)cc1OC` (configuration not stated), in [2], the CC50 was 46.5 µM (active). Also, the IC50 in “cells [3]” is 4.07 µM (active).

Regarding `COc1ccc(-c2noc(CCCC(=O)O)n2)cc1`, the figures for the EC50 (in experiment [7]; in the experiment with HT-1080) were 3.3 µM (active) and > 50 µM (not active), respectively. Also, in [8], the IC50 was > 80 µM (inactive). The AC50 was 2.26 µM (active) in [9], 1.08 µM (active) in experiment [10], 1.59 µM (active) in [11] and 1.1 µM (active) in experiment [12].

On to `CCOC(=O)c1csc(-c2ccc3c(c2)CCO3)n1`, for which the EC50 – broadly, the midpoint of the concentration-response curve – was > 12 µM (not active) in [13]; 0.127 µM (active) in experiment [14]; < 0.1 µM (active) in experiment [15]; 0.552 µM (active) in the experiment on H4; > 12 µM (not active) in experiment [16]; > 12 µM (not active) in experiment [17].

As to `N#C/C(=C\c1ccc(O)c(O)c1)S(=O)(=O)c1ccccc1`, the results for the IC50 at Leucine aminopeptidase and at NS3 were 7.23 µM (active) and 4.39 µM (active), respectively.

With `N#Cc1c(NC(=O)CSc2nnc[nH]2)sc2c1CCCC2`, at Leucine aminopeptidase, the IC50 is 4.79 µM (active). Further, in experiment [7], the EC50 was 27.8 µM (active). In addition, the AC50 in experiment [18] was 0.599 µM (active).

`COC(=O)c1c(-c2cccnc2)csc1NC(=O)c1cc(C)on1`: the EC50 in [13] was 0.321 µM (active); in experiment [15], < 0.1 µM (inconclusive); in the experiment with H4, 19.9 µM (inconclusive); in [16], 0.387 µM (active); in experiment [17], 0.435 µM (active). Also, the 50% inhibitory concentration (IC50) in experiment [19] is 29.6 µM (active); in experiment [20], > 100 µM (inactive); at Prothrombin, 48.3 µM (active).

As for `O=C(CSc1nnc(-c2ccc(Br)cc2)o1)Nc1cccc(C(=O)O)c1`, the EC50 is 3.04 µM (active) in experiment [21]; 0.31 µM (active) in experiment [22]; 0.934 µM (active) in “cells [23]”; < 0.1 µM (active) in [24]; < 0.1 µM (active) in experiment [25]; 0.409 µM (active) in experiment [26].
